pIC50: −log10 of the molar value. Where a name gives a salt, the structure may show the parent alone.
Legend:
UGT8 [1] = molecular target: T1, UGT8 (Homo sapiens, UniProt Q16880); test: In vitro sulfatide (SFT) synthesis inhibition in OE19 cells, LC-MS/MS readout; format: cell-based; settings: 72 hr, sulfatide by LC-MS/MS, read-out: Potency range (IC50, In-vitro SFT)
T1 construct: host or cells: OE19 cells
T1 sequence (Q16880 21-541): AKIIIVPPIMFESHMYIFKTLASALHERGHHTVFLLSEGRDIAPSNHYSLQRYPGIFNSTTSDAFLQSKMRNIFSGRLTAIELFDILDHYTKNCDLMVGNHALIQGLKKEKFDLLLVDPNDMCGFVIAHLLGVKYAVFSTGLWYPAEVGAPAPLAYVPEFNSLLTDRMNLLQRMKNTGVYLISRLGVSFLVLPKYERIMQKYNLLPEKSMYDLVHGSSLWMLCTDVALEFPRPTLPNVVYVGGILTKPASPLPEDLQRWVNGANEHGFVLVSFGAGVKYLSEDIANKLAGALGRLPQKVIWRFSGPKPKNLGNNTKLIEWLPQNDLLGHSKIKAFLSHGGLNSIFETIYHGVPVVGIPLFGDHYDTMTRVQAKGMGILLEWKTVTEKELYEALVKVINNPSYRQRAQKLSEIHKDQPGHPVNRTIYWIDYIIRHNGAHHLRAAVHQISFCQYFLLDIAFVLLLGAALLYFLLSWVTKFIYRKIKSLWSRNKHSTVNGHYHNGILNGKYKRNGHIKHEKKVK
In short: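 OE19 cells, 2,500/well, exposed to compound dose-downs in triplicate for 72 hr at 37° C (screening at 10 μM final). Sulfatide quantified by LC-MS/MS (C8 UPLC, isocratic, negative-ion MRM) with C17 SFT internal standard; IC50 from concentration-response curves.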

UGT8 [2] = molecular target: T2, UGT8 (Mus musculus, UniProt Q64676); test: Acute in vivo target engagement in neonatal mouse brain: inhibition of de novo GalCer and SFT synthesis (13C-Gal incorporation); settings: neonatal mouse (P14-P21) brain, 5 hr
T2 construct: Groups of 5 male C57Bl/6 mice, 6-9 wks of age (Charles River Laboratories); tissue Charles River Laboratories; host or cells: mouse kidney (adult C57Bl/6) and mid-/hind brain (neonatal P14-P21 mice)
T2 sequence (Q64676 21-541): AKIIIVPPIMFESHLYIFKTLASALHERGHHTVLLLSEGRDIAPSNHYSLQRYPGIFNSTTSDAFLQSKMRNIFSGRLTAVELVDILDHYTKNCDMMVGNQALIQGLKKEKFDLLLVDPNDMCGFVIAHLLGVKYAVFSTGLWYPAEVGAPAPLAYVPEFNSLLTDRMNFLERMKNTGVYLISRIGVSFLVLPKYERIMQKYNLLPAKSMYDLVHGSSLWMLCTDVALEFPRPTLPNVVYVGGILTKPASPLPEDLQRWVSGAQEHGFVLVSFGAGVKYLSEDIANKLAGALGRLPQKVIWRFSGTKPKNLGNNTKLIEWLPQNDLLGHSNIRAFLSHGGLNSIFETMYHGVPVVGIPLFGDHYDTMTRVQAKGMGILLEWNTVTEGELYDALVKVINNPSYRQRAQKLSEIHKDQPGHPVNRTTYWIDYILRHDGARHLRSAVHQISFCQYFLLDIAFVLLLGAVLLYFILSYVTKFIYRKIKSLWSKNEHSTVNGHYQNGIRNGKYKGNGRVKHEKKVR
Source text: SFT biosynthesis and turnover in the myelin of adult mice is very low, necessitating development of a short-term acute model of de novo synthesis inhibition. To do this, we took advantage of the fact that unlike primates in which most developmental myelination occurs in utero, in rodents, peak myelination occurs between postnatal day 14 (P14) and P22.
Groups of 5 neonatal mice age-matched between P14 and P21 received test article formulated in a clinically-acceptable formulation, administered by oral gavage; the control group received vehicle alone. One hr after administration of test article, animals received an i.p. injection of 13C-Gal (3 g/kg); 5 hr after administration of test article, animals were euthanized, brains were removed and dissected for recovery of mid- and hind brain which was snap-frozen and stored at −80° C. until analysis. Plasma samples were also collected for test article exposure analysis.
(§1) Mass Spectrometer Analysis of SFT
(§2) Quantitative analysis of sphingolipids (SLs) was performed using liquid chromatography with tandem mass spectrometry analysis (LC-MS/MS). Briefly, to extract glucosylceramide (GlcCer), galactosylceramide (GalCer), and sulfatide (ST), an aliquot of 10 μL of mouse tissue homogenate (100 mg/ml in water) was mixed with 1 mL of extraction solution (0.2% Formic Acid; 5 mM Ammonium formate in (50:50) Methanol:Acetonitrile (v/v) with internal standards (IS)). C17-ST and D35 labeled C18-GalCer were used for IS. The mixtures were vortexed and centrifuged. The resulting supernatants were transferred to HPLC vials for LC-MS/MS analysis. GlcCer and GalCer were separated using a Waters Acquity UPLC and Atlantis HILIC Silica column (2.1 mm×150 mm, […], Waters Corp., Milford, Mass.) and analyzed by an API 5000 triple quadrupole mass spectrometer in MRM mode (Applied Biosystems, Foster City, Calif.). ST were analyzed using a Waters Acquity UPLC and BEH C18 column (2.1 mm×50 mm, […], Waters Corp., Milford, Mass.) and analyzed by an API 6500 triple quadrupole mass spectrometer in MRM mode (Applied Biosystems, Foster City, Calif.).

UGT8 [3] = molecular target: T2, UGT8; test: Acute in vivo target engagement in mouse kidney: inhibition of de novo GalCer and SFT synthesis (13C-Gal incorporation); settings: 5 hr
Experimental: In vivo target engagement was initially assessed in an adult mouse kidney model assessing de novo synthesis inhibition. This model was selected because the high rate of GalCer and SFT synthesis and turnover in kidney facilitated development of an acute one-day model assessing the effect of a single administration of compound at different doses. Inhibition of de novo synthesis was determined by measuring the amount of 13C6 galactose (13C-Gal; CIL, cat #CLM-1570-pk) incorporated into GalCer and SFT.
Groups of 5 male C57Bl/6 mice, 6-9 wks of age (Charles River Laboratories) were maintained in an ALAAC-accredited vivarium with food and water ad libitum and were allowed to acclimate one week before initiating studies. Three to 5 dose groups received test article formulated in a clinically-acceptable formulation, administered by oral gavage; the control group received vehicle alone. One hr after administration of test article, animals received an intraperitoneal (i.p.) injection of 13C-Gal (3 g/kg); 5 hr after administration of test article, animals were euthanized and a kidney was removed and divided into two longitudinal samples that were snap-frozen and stored at −80° C. until processing for test article tissue exposure and lipid analysis (GalCer and SFT). Typically, brain and plasma samples were also collected for test article exposure.
as §1, §2

CNC(=O)c1csc2c(C(F)(F)F)cc(N3CCC(OC(=O)NC(C)C)CC3)nc12 [Example 76, 1-(3-(Methylcarbamoyl)-7-(trifluoromethyl)thieno[3,2-b]pyridin-5-yl)piperidin-4-yl isopropylcarbamate]
pIC50 (UGT8 [1]): > 7.00 | brain GalCer % inh (UGT8 [2]; single oral dose 3 mg/kg): B (40% < B < 80%) | brain Sulfatide % inh (UGT8 [2]; single oral dose 3 mg/kg): B (40% < B < 80%) | brain GalCer % inh (UGT8 [2]; single oral dose 10 mg/kg): A (A > 80%) | brain Sulfatide % inh (UGT8 [2]; single oral dose 10 mg/kg): A (A > 80%) | brain GalCer % inh (UGT8 [2]; single oral dose 30 mg/kg): A (A > 80%) | brain Sulfatide % inh (UGT8 [2]; single oral dose 30 mg/kg): A (A > 80%) | kidney GalCer % inh (UGT8 [3]; single oral dose 1 mg/kg): C (C < 40%) | kidney Sulfatide % inh (UGT8 [3]; single oral dose 1 mg/kg): C (C < 40%) | kidney GalCer % inh (UGT8 [3]; single oral dose 3 mg/kg): B (40% < B < 80%) | kidney Sulfatide % inh (UGT8 [3]; single oral dose 3 mg/kg): B (40% < B < 80%) | kidney GalCer % inh (UGT8 [3]; single oral dose 10 mg/kg): B (40% < B < 80%) | kidney Sulfatide % inh (UGT8 [3]; single oral dose 10 mg/kg): B (40% < B < 80%)

CNC(=O)c1csc2c(C(F)(F)F)cc(N3CCC(OC(=O)N[C@@H](C)COC(F)(F)F)CC3)nc12 [Example 90, 1-(3-(Methylcarbamoyl)-7-(trifluoromethyl)thieno[3,2-b]pyridin-5-yl)piperidin-4-yl (S)-(1-(trifluoromethoxy)propan-2-yl)carbamate]
pIC50 (UGT8 [1]): > 7.00 | brain GalCer % inh (UGT8 [2]; single oral dose 3 mg/kg): A, A, A (A > 80%) | brain Sulfatide % inh (UGT8 [2]; single oral dose 3 mg/kg): A, A, A (A > 80%) | brain GalCer % inh (UGT8 [2]; single oral dose 10 mg/kg): A, A, A (A > 80%) | brain Sulfatide % inh (UGT8 [2]; single oral dose 10 mg/kg): A, A, A (A > 80%) | brain GalCer % inh (UGT8 [2]; single oral dose 30 mg/kg): A, A, A (A > 80%) | brain Sulfatide % inh (UGT8 [2]; single oral dose 30 mg/kg): A, A, A (A > 80%) | kidney GalCer % inh (UGT8 [3]; single oral dose 0.3 mg/kg): C (C < 40%) | kidney Sulfatide % inh (UGT8 [3]; single oral dose 0.3 mg/kg): C (C < 40%) | kidney GalCer % inh (UGT8 [3]; single oral dose 1 mg/kg): C (C < 40%) | kidney Sulfatide % inh (UGT8 [3]; single oral dose 1 mg/kg): B (40% < B < 80%) | kidney GalCer % inh (UGT8 [3]; single oral dose 3 mg/kg): A (A > 80%) | kidney Sulfatide % inh (UGT8 [3]; single oral dose 3 mg/kg): A (A > 80%) | kidney GalCer % inh (UGT8 [3]; single oral dose 10 mg/kg): A (A > 80%) | kidney Sulfatide % inh (UGT8 [3]; single oral dose 10 mg/kg): A (A > 80%) | kidney GalCer % inh (UGT8 [3]; single oral dose 30 mg/kg): A (A > 80%) | kidney Sulfatide % inh (UGT8 [3]; single oral dose 30 mg/kg): A (A > 80%)

CNC(=O)c1csc2c(C(F)(F)F)cc(N3CCC(OC(=O)N[C@@H](C)C4CC4)CC3)nc12 [Example 109, 1-(3-(Methylcarbamoyl)-7-(trifluoromethyl)thieno[3,2-b]pyridin-5-yl)piperidin-4-yl (S)-(1-cyclopropylethyl)carbamate]
pIC50 (UGT8 [1]): > 7.00 | brain GalCer % inh (UGT8 [2]; single oral dose 10 mg/kg): B, B, B (40% < B < 80%) | brain Sulfatide % inh (UGT8 [2]; single oral dose 10 mg/kg): A, A, A (A > 80%) | brain GalCer % inh (UGT8 [2]; single oral dose 30 mg/kg): B, B, B (40% < B < 80%) | brain Sulfatide % inh (UGT8 [2]; single oral dose 30 mg/kg): A, A, A (A > 80%) | brain GalCer % inh (UGT8 [2]; single oral dose 100 mg/kg): B, B, B (40% < B < 80%) | brain Sulfatide % inh (UGT8 [2]; single oral dose 100 mg/kg): A, A, A (A > 80%) | kidney GalCer % inh (UGT8 [3]; single oral dose 5 mg/kg): C (C < 40%) | kidney GalCer % inh (UGT8 [3]; single oral dose 10 mg/kg): B (40% < B < 80%) | kidney GalCer % inh (UGT8 [3]; single oral dose 50 mg/kg): A (A > 80%)

CNC(=O)c1csc2c(C(F)(F)F)cc(N3CCC(OC(=O)NCC4CC4)CC3)nc12 [Example 475, 1-(3-(Methylcarbamoyl)-7-(trifluoromethyl)thieno[3,2-b]pyridin-5-yl)piperidin-4-yl (cyclopropylmethyl)carbamate trifluoroacetate]
kidney GalCer % inh (UGT8 [3]; single oral dose 3 mg/kg): C (C < 40%) | kidney GalCer % inh (UGT8 [3]; single oral dose 10 mg/kg): B (40% < B < 80%) | kidney GalCer % inh (UGT8 [3]; single oral dose 50 mg/kg): B (40% < B < 80%)

CNC(=O)c1csc2c(C(F)(F)F)cc(N3CC[C@H](OC(=O)NC(C)C)[C@@H](F)C3)nc12 [Example 496, (3S,4S)-3-Fluoro-1-(3-(methylcarbamoyl)-7-(trifluoromethyl)thieno[3,2-b]pyridin-5-yl)piperidin-4-yl isopropylcarbamate]
pIC50 (UGT8 [1]): > 7.00 | kidney GalCer % inh (UGT8 [3]; single oral dose 10 mg/kg): A, A, A (A > 80%) | kidney Sulfatide % inh (UGT8 [3]; single oral dose 10 mg/kg): A, A, A (A > 80%) | kidney GalCer % inh (UGT8 [3]; single oral dose 30 mg/kg): A, A, A (A > 80%) | kidney Sulfatide % inh (UGT8 [3]; single oral dose 30 mg/kg): A, A, A (A > 80%) | kidney GalCer % inh (UGT8 [3]; single oral dose 100 mg/kg): A, A, A (A > 80%) | kidney Sulfatide % inh (UGT8 [3]; single oral dose 100 mg/kg): A, A, A (A > 80%)

CNC(=O)c1csc2c(C(F)(F)F)cc(N3CCC(OC(=O)N[C@@H](C)CF)CC3)nc12 [Example 693, [1-[3-(Methylcarbamoyl)-7-(trifluoromethyl)thieno[3,2-b]pyridin-5-yl]-4-piperidyl] N-[(1S)-2-fluoro-1-methyl-ethyl]carbamate]
pIC50 (UGT8 [1]): > 7.00 | kidney GalCer % inh (UGT8 [3]; single oral dose 1 mg/kg): C (C < 40%) | kidney Sulfatide % inh (UGT8 [3]; single oral dose 1 mg/kg): C (C < 40%) | kidney GalCer % inh (UGT8 [3]; single oral dose 3 mg/kg): C (C < 40%) | kidney Sulfatide % inh (UGT8 [3]; single oral dose 3 mg/kg): C (C < 40%) | kidney GalCer % inh (UGT8 [3]; single oral dose 10 mg/kg): B (40% < B < 80%) | kidney Sulfatide % inh (UGT8 [3]; single oral dose 10 mg/kg): A (A > 80%)
